Data published in ChEMBL document CHEMBL1201862, “PubChem BioAssay data set” (2004).
One block for each compound: values may come before it. Activity calls are given as the source filed them.

Assays:
[1] = ADAM10 inhibitors, peptide cleavage, dose response, biochemical, QFRET (AID 743254);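 note: ADAM10 enzyme with the DM2 quenched FRET peptide as substrate; EDANS fluorescence gain as the protease cuts the substrate; inhibitor potency against ADAM10 proteolytic activity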
[2] = molecular target: Disintegrin and metalloproteinase domain-containing protein 17 (Homo sapiens, UniProt P78536); experiment: ADAM17 protease inhibitors, dose response, counter-screen for ADAM10 exosite inhibitor project, biochemical, quenched FRET substrate (AID 743253)
[3] = HeLa 2N DNA content increase, dose response, cell-based, IC50 (AID 1117349); type: functional
[4] = HeLa 4N DNA content increase, dose response, cell-based, IC50 (AID 1117351); type: functional
[5] = RKO cell viability reduction, dose response, CellTiter-Glo luminescence (AID 1117322); type: functional
[6] = cytotoxicity toward Colo320 cells – cell-based, CellTiter-Glo luminescence, IC50, dose response (AID 1117334); type: functional; conditions: COLO 320
[7] = SNU-C1 cell viability reduction, dose response, CellTiter-Glo luminescence (AID 1117323); type: functional, cell-based
[8] = HCT116 cell viability decrease, GSK3B pretreatment – CellTiter-Glo, IC50, dose response (AID 1117339); type: functional; conditions: HCT-116
[9] = cytotoxicity toward HCT116 cells – cell-based, CellTiter-Glo luminescence, IC50, dose response (AID 1117332); type: functional; conditions: HCT-116
[10] = Concentration-dependent survival of SW480 colon cancer line, luminescence detection with CellTiter-Glo, half-maximal inhibitory concentration (AID 1117338); type: functional
[11] = cytotoxicity toward HT-29 cells – cell-based, CellTiter-Glo luminescence, IC50, dose response (AID 1117330); type: functional
[12] = CellTiter-Glo luminescent dose response of DLD-1 viability loss (AID 1117352); type: functional
Mucolipin-3 = molecular target: T1, Mucolipin-3 (Homo sapiens, UniProt Q8TDD5); experiment: Dose response cell-based high-throughput screening assay for agonists of the transient receptor potential channel ML3 (TRPML3). [Related pubchem assays: 1526, 1424, 1448 ]; type: functional
T1 sequence (Q8TDD5 whole entry): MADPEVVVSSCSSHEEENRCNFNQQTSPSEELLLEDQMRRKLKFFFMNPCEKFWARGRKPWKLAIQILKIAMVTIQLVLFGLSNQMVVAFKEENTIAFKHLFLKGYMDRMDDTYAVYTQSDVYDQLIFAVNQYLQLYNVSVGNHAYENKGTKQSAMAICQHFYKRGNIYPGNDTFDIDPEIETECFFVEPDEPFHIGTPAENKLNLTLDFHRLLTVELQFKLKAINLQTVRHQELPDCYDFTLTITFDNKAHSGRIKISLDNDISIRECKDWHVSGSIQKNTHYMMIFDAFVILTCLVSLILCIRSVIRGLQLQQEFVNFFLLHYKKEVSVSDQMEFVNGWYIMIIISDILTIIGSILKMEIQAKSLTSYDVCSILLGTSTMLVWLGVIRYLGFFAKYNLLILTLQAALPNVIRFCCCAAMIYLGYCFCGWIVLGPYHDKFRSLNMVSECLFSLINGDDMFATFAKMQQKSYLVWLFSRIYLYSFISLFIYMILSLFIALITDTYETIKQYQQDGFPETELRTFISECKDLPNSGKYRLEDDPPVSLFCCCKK

Ion channel NompC = Ion channel NompC (Danio rerio, UniProt Q7T1G6); experiment: Fluorescence counterscreen assay for TRPML3 agonists: dose response cell-based high-throughput screening assay to identify agonists of the transient receptor potential channel N1 (TRPN1). [Related pubchem assays: 1526, 1424, 1448 ]; type: functional
Chain of Ion channel NompC (Q7T1G6 whole entry): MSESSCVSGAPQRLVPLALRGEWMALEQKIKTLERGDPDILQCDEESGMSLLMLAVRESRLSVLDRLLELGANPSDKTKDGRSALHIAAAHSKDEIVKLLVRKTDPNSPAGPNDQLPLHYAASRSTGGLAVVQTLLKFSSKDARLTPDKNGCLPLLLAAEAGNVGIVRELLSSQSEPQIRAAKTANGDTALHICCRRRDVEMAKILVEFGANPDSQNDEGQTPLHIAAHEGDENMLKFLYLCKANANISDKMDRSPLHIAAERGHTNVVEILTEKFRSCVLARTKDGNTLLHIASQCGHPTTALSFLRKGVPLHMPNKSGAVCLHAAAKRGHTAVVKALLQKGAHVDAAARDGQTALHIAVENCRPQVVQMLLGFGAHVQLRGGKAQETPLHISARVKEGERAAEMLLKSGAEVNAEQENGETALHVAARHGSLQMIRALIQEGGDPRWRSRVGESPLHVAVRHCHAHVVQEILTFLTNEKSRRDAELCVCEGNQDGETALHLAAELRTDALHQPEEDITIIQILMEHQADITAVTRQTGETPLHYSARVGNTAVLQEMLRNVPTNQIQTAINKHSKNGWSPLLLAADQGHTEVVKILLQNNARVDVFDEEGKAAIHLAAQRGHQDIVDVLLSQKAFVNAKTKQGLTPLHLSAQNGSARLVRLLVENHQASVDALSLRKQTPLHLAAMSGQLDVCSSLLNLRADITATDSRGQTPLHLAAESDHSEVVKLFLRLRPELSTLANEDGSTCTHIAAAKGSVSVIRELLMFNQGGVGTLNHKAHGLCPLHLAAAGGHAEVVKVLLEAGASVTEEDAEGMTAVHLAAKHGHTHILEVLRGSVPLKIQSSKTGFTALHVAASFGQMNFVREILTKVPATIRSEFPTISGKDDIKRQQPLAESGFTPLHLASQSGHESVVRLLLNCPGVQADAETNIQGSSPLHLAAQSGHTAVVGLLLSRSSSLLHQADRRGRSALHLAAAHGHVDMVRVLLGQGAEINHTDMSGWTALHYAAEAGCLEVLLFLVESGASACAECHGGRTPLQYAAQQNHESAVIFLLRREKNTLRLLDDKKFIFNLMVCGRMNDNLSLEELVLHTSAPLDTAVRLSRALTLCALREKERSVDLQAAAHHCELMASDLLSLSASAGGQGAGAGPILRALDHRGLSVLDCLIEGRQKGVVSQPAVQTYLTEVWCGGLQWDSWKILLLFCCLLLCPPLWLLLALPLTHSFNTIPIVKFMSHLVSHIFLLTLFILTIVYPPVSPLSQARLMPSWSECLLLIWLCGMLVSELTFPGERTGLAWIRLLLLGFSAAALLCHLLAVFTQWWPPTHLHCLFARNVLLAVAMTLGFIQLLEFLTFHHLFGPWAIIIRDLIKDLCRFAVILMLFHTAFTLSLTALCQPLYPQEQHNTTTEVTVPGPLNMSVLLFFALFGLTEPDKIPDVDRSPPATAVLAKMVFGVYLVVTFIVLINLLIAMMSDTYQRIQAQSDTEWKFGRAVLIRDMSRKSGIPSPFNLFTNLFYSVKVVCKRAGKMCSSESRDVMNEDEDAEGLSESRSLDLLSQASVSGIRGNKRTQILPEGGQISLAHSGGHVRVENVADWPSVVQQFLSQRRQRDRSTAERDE

Chain of Disintegrin and metalloproteinase domain-containing protein 17 (P78536 whole entry, the tested form may be a part): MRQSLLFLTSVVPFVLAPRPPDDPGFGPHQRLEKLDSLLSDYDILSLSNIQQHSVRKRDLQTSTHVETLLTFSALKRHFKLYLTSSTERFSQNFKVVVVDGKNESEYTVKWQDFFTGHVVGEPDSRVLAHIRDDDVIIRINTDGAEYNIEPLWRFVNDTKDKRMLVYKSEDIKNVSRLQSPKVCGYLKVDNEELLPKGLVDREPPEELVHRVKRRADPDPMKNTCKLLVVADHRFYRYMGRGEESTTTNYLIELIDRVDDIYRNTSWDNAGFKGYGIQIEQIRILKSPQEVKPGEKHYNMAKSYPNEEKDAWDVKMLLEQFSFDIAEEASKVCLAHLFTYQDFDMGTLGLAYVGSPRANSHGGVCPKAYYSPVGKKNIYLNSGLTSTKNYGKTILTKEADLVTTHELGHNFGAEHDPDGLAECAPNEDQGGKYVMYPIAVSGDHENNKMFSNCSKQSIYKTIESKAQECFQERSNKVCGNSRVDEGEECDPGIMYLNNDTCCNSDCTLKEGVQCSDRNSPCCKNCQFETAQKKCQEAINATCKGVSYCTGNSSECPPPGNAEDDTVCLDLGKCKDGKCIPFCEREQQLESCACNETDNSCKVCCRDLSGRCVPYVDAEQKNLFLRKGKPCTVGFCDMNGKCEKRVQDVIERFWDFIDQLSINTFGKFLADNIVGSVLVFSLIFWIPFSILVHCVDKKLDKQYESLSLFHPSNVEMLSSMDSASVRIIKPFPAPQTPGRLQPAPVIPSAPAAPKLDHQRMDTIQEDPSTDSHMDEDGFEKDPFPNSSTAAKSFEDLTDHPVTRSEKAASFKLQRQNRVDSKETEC

IC50 [1]: > 69.5 µM (inactive)
IC50 [2]: > 69.5 µM (inactive)
Structure (SMILES): C=CC[C@@H](CC(=O)N(CCO)Cc1ccccc1)C(=O)N[C@H](COC(=O)[C@@H](CC=C)Cc1ccc(F)cc1)Cc1c[nH]c2ccccc12

IC50 [1]: > 69.5 µM (inactive)
IC50 [2]: > 69.5 µM (inactive)
Structure (SMILES): CCc1ccc(/C=c2\s/c(=C\C(=O)C(C)(C)C)[nH]c2=O)cc1

Second part, the compound before the results:

Structure (SMILES): O[C@@H](CNC[C@H](O)[C@H]1CCc2cc(F)ccc2O1)[C@@H]1CCc2cc(F)ccc2O1
IC50 [3]: > 10 µM (inactive)
IC50 [4]: > 10 µM (inactive)
IC50 [5]: 3.28 µM (active)
IC50 [6]: > 20 µM (inactive)
IC50 [7]: 5.09 µM (inactive)
IC50 [8]: 2.4 µM (active)
IC50 [9]: 6.48 µM (inactive)
IC50 [10]: 3.6 µM (active)
IC50 [11]: 4.5 µM (active)
IC50 [12]: 15.3 µM (inactive)

Structure (SMILES): COc1ccccc1N(C)S(=O)(=O)c1ccc(Cl)c(C(=O)OCc2c(C)noc2C)c1
EC50 (Mucolipin-3): 3.01 µM (active)
EC50 (Ion channel NompC): > 29.9 µM (not active)

Structure (SMILES): Cc1ccccc1C(=O)Nc1ccc(C(=O)N2CCCC(N(C)C)c3ccccc32)cc1 (stereo not drawn) [MOZAVAPTAN]
IC50 [3]: > 10 µM (inactive)
IC50 [4]: > 10 µM (inactive)
